Earlier results in patent publication US6399640B1, “Arylthiazolidinedione and aryloxazolidinedione derivatives” (Merck & Co., Inc., priority 1999, dated 2002).

Tests used:
ob/ob mice = conditions: Cantello et al, J. Med. Chem. 1994
PPARγ = conditions: subsequent studies; Willson et al, J. Med. Chem. 1996
diabetic mouse model = conditions: Sohda et al, Chem. Pharm. Bull. 1982

Row | SMILES | antihyperglycemic activity (ob/ob mice) | amounts required for PPARγ activation (PPARγ) | antihyperglycemic effect (diabetic mouse model)
1 | CN(CCOc1ccc(C2SC(=O)NC2=O)cc1)c1nc2ccccc2o1 (stereo not drawn) [(1)] | no antihyperglycemic activity | relatively high amounts | –
2 | O=C1NC(=O)C(c2ccc(OCCc3ccccc3)cc2)S1 (stereo not drawn) [(2), 5-[4-(phenylethoxy)phenyl]-2,4-thiazolidinedione] | – | – | no antihyperglycemic effect
